Test results as given in PubChem BioAssay (NCI).
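Values below derive from 48-hour exposures of cells grown in 96-well plates, with endpoints linearly interpolated between the two concentrations bracketing the appropriate inhibition level. TGI denotes the concentration required for complete inhibition of growth.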

Tests used:
Assay in all cases: DTP human tumour cell line panel, 48 h
OVCAR-4 ovarian = system: OVCAR-4 ovarian
A498 renal = system: A498 renal
HT29 colon = system: HT29 colon
RPMI-8226 leukemia = system: RPMI-8226 leukemia
MALME-3M melanoma = system: MALME-3M melanoma
786-0 renal = system: 786-0 renal
A549 NSCLC = system: A549 NSCLC
RXF 393 renal = system: RXF 393 renal
COLO 205 colon = system: COLO 205 colon
M14 melanoma = system: M14 melanoma
HCT-116 colon = system: HCT-116 colon
SK-MEL-2 melanoma = system: SK-MEL-2 melanoma
SK-OV-3 ovarian = system: SK-OV-3 ovarian
SF-539 CNS = system: SF-539 CNS
SK-MEL-28 melanoma = system: SK-MEL-28 melanoma
BT-549 breast = system: BT-549 breast
KM12 colon = system: KM12 colon
TK-10 renal = system: TK-10 renal
SR leukemia = system: SR leukemia
MDA-MB-231 breast = system: MDA-MB-231 breast
PC-3 prostate = system: PC-3 prostate
MDA-N = system: MDA-N
UO-31 renal = system: UO-31 renal
NCI-H226 lung = system: NCI-H226 lung
NCI-H460 lung = system: NCI-H460 lung
LOX IMVI melanoma = system: LOX IMVI melanoma
OVCAR-5 ovarian = system: OVCAR-5 ovarian
ACHN renal = system: ACHN renal
UACC-257 melanoma = system: UACC-257 melanoma
MOLT-4 leukemia = system: MOLT-4 leukemia
NCI-H522 lung = system: NCI-H522 lung
HCT-15 colon = system: HCT-15 colon
SK-MEL-5 melanoma = system: SK-MEL-5 melanoma
NCI/ADR-RES ovarian = system: NCI/ADR-RES ovarian
IGROV1 ovarian = system: IGROV1 ovarian
HL-60(TB) leukemia = system: HL-60(TB) leukemia
NCI-H23 lung = system: NCI-H23 lung
HOP-92 NSCLC = system: HOP-92 NSCLC
MCF7 breast = system: MCF7 breast
EKVX NSCLC = system: EKVX NSCLC
UACC-62 melanoma = system: UACC-62 melanoma
T-47D breast = system: T-47D breast
K-562 leukemia = system: K-562 leukemia
OVCAR-8 ovarian = system: OVCAR-8 ovarian
SW-620 colon = system: SW-620 colon
SF-268 CNS = system: SF-268 CNS
HS 578T breast = system: HS 578T breast
SNB-75 CNS = system: SNB-75 CNS
DU-145 prostate = system: DU-145 prostate
SN12C renal = system: SN12C renal
HOP-62 NSCLC = system: HOP-62 NSCLC
OVCAR-3 ovarian = system: OVCAR-3 ovarian
SNB-19 CNS = system: SNB-19 CNS
U251 CNS = system: U251 CNS
SF-295 CNS = system: SF-295 CNS
HCC-2998 colon = system: HCC-2998 colon
CCRF-CEM leukemia = system: CCRF-CEM leukemia
MDA-MB-435 = system: MDA-MB-435
CAKI-1 renal = system: CAKI-1 renal

N/C(=N\S(=O)(=O)c1ccc(S(=O)(=O)c2ccccc2)s1)Nc1ccc(Cl)cc1
TGI (OVCAR-4 ovarian): 94.8 µM | TGI (A498 renal): 34.7 µM | TGI (HT29 colon): 45.1 µM | TGI (RPMI-8226 leukemia): 88.7 µM | TGI (MALME-3M melanoma): 47.9 µM | TGI (786-0 renal): 41.5 µM | TGI (A549 NSCLC): > 100 µM | TGI (RXF 393 renal): > 100 µM | TGI (COLO 205 colon): 39.4 µM | TGI (M14 melanoma): 37.3 µM | TGI (HCT-116 colon): 32.9 µM | TGI (SK-MEL-2 melanoma): 31.6 µM | TGI (SK-OV-3 ovarian): > 100 µM | TGI (SF-539 CNS): 84.3 µM | TGI (SK-MEL-28 melanoma): 44 µM | TGI (BT-549 breast): 46 µM | TGI (KM12 colon): > 100 µM | TGI (TK-10 renal): 51.1 µM | TGI (SR leukemia): 61.9 µM | TGI (MDA-MB-231 breast): 28.8 µM | TGI (PC-3 prostate): 29.6 µM | TGI (MDA-N): 39.1 µM | TGI (UO-31 renal): 40 µM | TGI (NCI-H226 lung): 88.6 µM | TGI (NCI-H460 lung): 33.8 µM | TGI (LOX IMVI melanoma): 32.4 µM | TGI (OVCAR-5 ovarian): 97.6 µM | TGI (ACHN renal): 71.4 µM | TGI (UACC-257 melanoma): 29.1 µM | TGI (MOLT-4 leukemia): 59.6 µM | TGI (NCI-H522 lung): 28.9 µM | TGI (HCT-15 colon): 35.1 µM | TGI (SK-MEL-5 melanoma): 32.5 µM | TGI (NCI/ADR-RES ovarian): 45.1 µM | TGI (IGROV1 ovarian): 31.7 µM | TGI (HL-60(TB) leukemia): 53.8 µM | TGI (NCI-H23 lung): 90.4 µM | TGI (HOP-92 NSCLC): 39.1 µM | TGI (MCF7 breast): 35.6 µM | TGI (EKVX NSCLC): 40.4 µM | TGI (UACC-62 melanoma): 24.4 µM | TGI (T-47D breast): > 100 µM | TGI (K-562 leukemia): 88.2 µM | TGI (OVCAR-8 ovarian): 45.1 µM | TGI (SW-620 colon): 44.8 µM | TGI (SF-268 CNS): 47.7 µM | TGI (HS 578T breast): 81.5 µM | TGI (SNB-75 CNS): > 100 µM | TGI (DU-145 prostate): 55.3 µM | TGI (SN12C renal): 36.3 µM | TGI (HOP-62 NSCLC): 39.3 µM | TGI (OVCAR-3 ovarian): 79.6 µM | TGI (SNB-19 CNS): > 100 µM | TGI (U251 CNS): 27.8 µM | TGI (SF-295 CNS): 47 µM

Cn1c(=O)c(C(=O)Nc2nc(C34CC5CC(CC(C5)C3)C4)cs2)c(O)c2ccccc21
TGI (OVCAR-4 ovarian): > 100 µM | TGI (A498 renal): > 100 µM | TGI (HT29 colon): > 100 µM | TGI (RPMI-8226 leukemia): > 100 µM | TGI (MALME-3M melanoma): > 100 µM | TGI (786-0 renal): > 100 µM | TGI (A549 NSCLC): > 100 µM | TGI (RXF 393 renal): 65 µM | TGI (COLO 205 colon): > 100 µM | TGI (HCT-116 colon): > 100 µM | TGI (SF-539 CNS): > 100 µM | TGI (SK-MEL-28 melanoma): > 100 µM | TGI (BT-549 breast): > 100 µM | TGI (KM12 colon): > 100 µM | TGI (TK-10 renal): > 100 µM | TGI (SR leukemia): > 100 µM | TGI (MDA-MB-231 breast): > 100 µM | TGI (PC-3 prostate): > 100 µM | TGI (MDA-N): > 100 µM | TGI (UO-31 renal): > 100 µM | TGI (HCC-2998 colon): > 100 µM | TGI (CCRF-CEM leukemia): > 100 µM | TGI (NCI-H226 lung): > 100 µM | TGI (NCI-H460 lung): > 100 µM | TGI (LOX IMVI melanoma): > 100 µM | TGI (OVCAR-5 ovarian): > 100 µM | TGI (ACHN renal): > 100 µM | TGI (UACC-257 melanoma): > 100 µM | TGI (NCI-H522 lung): > 100 µM | TGI (HCT-15 colon): > 100 µM | TGI (MDA-MB-435): > 100 µM | TGI (SK-MEL-5 melanoma): > 100 µM | TGI (NCI/ADR-RES ovarian): 70.2 µM | TGI (IGROV1 ovarian): > 100 µM | TGI (HL-60(TB) leukemia): > 100 µM | TGI (NCI-H23 lung): > 100 µM | TGI (HOP-92 NSCLC): 65.9 µM | TGI (MCF7 breast): > 100 µM | TGI (EKVX NSCLC): > 100 µM | TGI (K-562 leukemia): > 100 µM | TGI (OVCAR-8 ovarian): > 100 µM | TGI (CAKI-1 renal): > 100 µM | TGI (SW-620 colon): > 100 µM | TGI (SF-268 CNS): > 100 µM | TGI (HS 578T breast): > 100 µM | TGI (SNB-75 CNS): > 100 µM | TGI (DU-145 prostate): > 100 µM | TGI (SN12C renal): > 100 µM | TGI (HOP-62 NSCLC): 36.2 µM | TGI (OVCAR-3 ovarian): > 100 µM | TGI (SNB-19 CNS): > 100 µM | TGI (U251 CNS): > 100 µM | TGI (SF-295 CNS): > 100 µM
